assay: Hydrolytic stability: time dependent degree of hydrolysis of the 19F fluorosilane to the hydroxy compound at physiological pH (7.0); assay type: physicochemical; conditions: ratio of hydrolytic halflife to radioactive halflife of the 18-F isotope (1.83 hours)
Description: The time dependent degree of hydrolysis of compounds of formula I in which X is a fluorine atom of isotope 19 to compounds of formula I in which X is a hydroxy group was determined at physiological pH (7.0). From the kinetics the hydrolytic halflife (t1/2) measured in hours [h] of compounds of formula I in which X is a fluorine atom of isotope 19 were calculated (Table 1, column 2).
The ratio of the hydrolytic halflifes of compounds of formula I in which X is a fluorine atom of isotope 19 and the radioactive halflife of the 18-F isotope (1.83 hours) is defined as relative stability (Table 1, column 3).
After 6 hours 90% of the 18-F isotope have been decayed.
Compounds of formula I in which X is a fluorine atom of isotope 18 are considered as useful for PET applications if the relative stability of their analogs bearing a fluorine atom of isotope 19 exceed a factor of four and if at least 50% of these compounds remain intact after 6 hours under hydrolytic conditions at pH 7.

| SMILES | rel. stability |
| --- | --- |
| CC(C)[Si](F)(c1ccc(COC2CCCCO2)cc1)C(C)C (racemic) [Compound 3a - F, (RS)-Fluoro-diisopropyl-[4-(tetrahydro-pyran-2-yloxymethyl)-phenyl]-silane] | 27.0 |
| CC(C)[Si](F)(c1cccc(CCOC2CCCCO2)c1)C(C)C (racemic) [Compound 3e - F, (RS)-Fluoro-diisopropyl-{3-[2-(tetrahydro-pyran-2-yloxy)-ethyl]-phenyl}-silane] | > 54.6 |
| F[Si](c1ccccc1)(c1ccccc1)c1ccc(CCOC2CCCCO2)cc1 (racemic) [Compound 3f - F, (RS)-Fluoro-diphenyl-{4-[2-(tetrahydro-pyran-2-yloxy)-ethyl]-phenyl}-silane] | 0.04 |
| CC(C)C[Si](F)(CC(C)C)c1ccc(COC2CCCCO2)cc1 (racemic) [Compound 3g - F, (RS)-Fluoro-diisobutyl-[4-(tetrahydro-pyran-2-yloxymethyl)-phenyl]-silane] | 4.5 |
| CC(C)[Si](F)(c1ccc(C(=O)O)cc1)C(C)C [Compound 5a - F, 4-(Fluoro-diisopropyl-silanyl)-benzoic acid] | 6.1 |
| CC(C)C[Si](F)(CC(C)C)c1ccc(C(=O)O)cc1 [Compound 5g - F, 4-(Fluoro-diisobutyl-silanyl)-benzoic acid] | 1.9 |
| CC(C)C[Si](F)(CC(C)C)c1ccc(CC(=O)O)cc1 [Compound 5h - F, [4-(Fluoro-diisobutyl-silanyl)-phenyl]-acetic acid] | 4.8 |
| CC(C)C[Si](F)(CCCCC(=O)Nc1ccccc1)CC(C)C [Compound 30a - 1F, 5-(Fluoro-diisobutyl-silanyl)-pentanoic acid phenylamide] | 7.5 |
